Laboratory results taken from ChEMBL document CHEMBL1201862, “PubChem BioAssay data set” (2004).
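Five compound concentrations were applied to cells in 96-well plates for 48 hours; endpoints were derived by simple linear interpolation of the resulting dose-response curve. Here, GI50 denotes the concentration required for 50% inhibition of growth.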 Calls of active or inactive are those of the source. No stated cut-off is given here; in the data, active = GI50 up to about 1.1 µM and inactive = higher.

Experiments:
Experiment in all cases: growth of human tumour cells (NCI), 48 h
DLD-1 = system: DLD-1
DMS-114 = system: DMS-114
DMS-273 = system: DMS-273
HOP-18 = system: HOP-18
LXFL 529 = system: LXFL 529
SNB-78 = system: SNB-78
XF498 = system: XF498
M19-MEL = system: M19-MEL
RXF 631 = system: RXF 631

SMILES | GI50 (DLD-1) | GI50 (DMS-114) | GI50 (DMS-273) | GI50 (HOP-18) | GI50 (LXFL 529) | GI50 (SNB-78) | GI50 (XF498) | GI50 (M19-MEL) | GI50 (RXF 631)
COc1cc(-c2ccc(Nc3ccccc3C(=O)O)c(OC)c2)ccc1Nc1ccccc1C(=O)O | > 28 µM (inactive) | 25.4 µM (inactive) | 1.81 µM (inactive) | > 100 µM (inactive) | 1.68 µM (inactive) | 32 µM (inactive) | > 40.1 µM (inactive) |  | 
CN(C(=O)C12C3C4C5C3C1(C(=O)O)C5C42)C(C)(C)C (stereo not drawn) | 23.7 µM (inactive) | 28.9 µM (inactive) | 16.5 µM (inactive) | > 100 µM (inactive) | 74.8 µM (inactive) | > 100 µM (inactive) | > 100 µM (inactive) | > 100 µM (inactive) | > 100 µM (inactive)
O=c1c(-c2ccccc2)c2oc(c1-c1ccccc1)CSCc1cccc(c1)CSC2 | 54.7 µM (inactive) | 36.9 µM (inactive) | 39.5 µM (inactive) | 27.8 µM (inactive) | 39 µM (inactive) | 82.8 µM (inactive) |  | 45.9 µM (inactive) | 
CC[C@@]1(O)C(=O)OCc2c1c(Cl)c1n(c2=O)Cc2cc3ccccc3nc2-1 | 6.68 µM (inactive) | 1.35 µM (inactive) | 0.605 µM (active) | 3.21 µM (inactive) | 8.15 µM (inactive) | 7.18 µM (inactive) | 3.07 µM (inactive) | 1.67 µM (inactive) | 2.48 µM (inactive)
C[n+]1c2ccccc2c(CNCC(=O)O)c2ccccc21 | 0.659 µM (active) | 2.13 µM (inactive) | 0.646 µM (active) | 10.3 µM (inactive) | 1.07 µM (active) | 11.3 µM (inactive) | 2.14 µM (inactive) | 4.43 µM (inactive) | 
Cn1c2ccccc2c(=O)c2c(O)cc3c(c21)CC(C1(C)CO1)O3 (stereo not drawn) | 3.64 µM (inactive) | 2.13 µM (inactive) | 21.9 µM (inactive) | 32.3 µM (inactive) | 0.229 µM (active) |  | 1.88 µM (inactive) |  | 3.61 µM (inactive)
COc1cccc(C2C(C(=O)Nc3cc(=O)n(C)c(=O)n3C)=C(C)NC(C)=C2C(=O)Nc2cc(=O)n(C)c(=O)n2C)c1O | > 100 µM (inactive) | > 100 µM (inactive) |  |  | > 100 µM (inactive) | > 100 µM (inactive) | > 100 µM (inactive) | > 100 µM (inactive) | > 100 µM (inactive)
Cc1ccc(S(=O)(=O)C2CC2(Cl)Cl)cc1 (stereo not drawn) | 24.2 µM (inactive) | 19.7 µM (inactive) | 32.5 µM (inactive) |  | 18.9 µM (inactive) |  | 21.2 µM (inactive) | 25.1 µM (inactive) | 20.9 µM (inactive)
NC1=NCC(c2ccccn2)C1c1ccc(F)cc1 (stereo not drawn) | > 100 µM (inactive) | > 100 µM (inactive) |  | > 100 µM (inactive) | > 100 µM (inactive) | > 100 µM (inactive) | > 100 µM (inactive) | > 100 µM (inactive) | > 100 µM (inactive)
Cc1ccc(S(=O)(=O)NC2(C=O)CCC(C(C)(C)C)CC2)cc1 (stereo not drawn) | 35.2 µM (inactive) | 20.4 µM (inactive) | 27.7 µM (inactive) | 29.2 µM (inactive) | > 100 µM (inactive) | > 100 µM (inactive) | 43.8 µM (inactive) | 24.7 µM (inactive) | 31.8 µM (inactive)
N#CC1=C(c2ccccc2)OC2(N)OC(c3ccccc3)=C(C#N)C12C#N (stereo not drawn) | > 100 µM (inactive) | 51.5 µM (inactive) | > 100 µM (inactive) | 21.6 µM (inactive) | 74 µM (inactive) | > 100 µM (inactive) | > 100 µM (inactive) | > 100 µM (inactive) | > 100 µM (inactive)
COc1nc2c(c(O)c(C)c(=O)n2OC2OCC(OC(C)=O)C(OC(C)=O)C2OC(C)=O)c(=O)n1C (stereo not drawn) | > 100 µM (inactive) | > 100 µM (inactive) | > 100 µM (inactive) |  | > 100 µM (inactive) | > 100 µM (inactive) | > 100 µM (inactive) | > 100 µM (inactive) | 
C[N+](C)(C)CC(=O)N/N=C(/C=C/c1ccccc1)CC1OC(=O)c2ccccc21 (stereo not drawn) | > 100 µM (inactive) | > 100 µM (inactive) | > 100 µM (inactive) | > 100 µM (inactive) | > 100 µM (inactive) | > 100 µM (inactive) | > 100 µM (inactive) | > 100 µM (inactive) | 
O=c1[nH]cc(F)c(=O)n1C1OC(CO)C(O)C1O (stereo not drawn) | > 100 µM (inactive) | > 100 µM (inactive) | > 100 µM (inactive) | > 100 µM (inactive) | > 100 µM (inactive) | > 100 µM (inactive) | > 100 µM (inactive) |  | 
CCOc1ccc2c(c1)[n+]([O-])c(C(N)=O)c(N)[n+]2[O-] | > 100 µM (inactive) | > 100 µM (inactive) | > 100 µM (inactive) | > 100 µM (inactive) | > 100 µM (inactive) | > 100 µM (inactive) | > 100 µM (inactive) | > 100 µM (inactive) | 
O=C(O)/C(Cl)=C(\Cl)Nc1cccc(C(F)(F)F)c1 | > 100 µM (inactive) | > 100 µM (inactive) | > 100 µM (inactive) | > 100 µM (inactive) | > 100 µM (inactive) | > 100 µM (inactive) | > 100 µM (inactive) | > 100 µM (inactive) | 
CCCC(S(=O)(=O)c1ccccc1)S(=O)(=O)c1ccccc1 | > 100 µM (inactive) | > 100 µM (inactive) | > 100 µM (inactive) |  | > 100 µM (inactive) | > 100 µM (inactive) | > 100 µM (inactive) | > 100 µM (inactive) | > 100 µM (inactive)
O=[N+]([O-])c1ccc(C2CC(c3ccccc3Cl)=Nc3ccccc3[S+]2[O-])cc1 (stereo not drawn) | 2.06 µM (inactive) | 2.05 µM (inactive) | 2.95 µM (inactive) | 14.1 µM (inactive) | 1.79 µM (inactive) | 13.1 µM (inactive) | 5.89 µM (inactive) | 2.77 µM (inactive) | 5.27 µM (inactive)
Cc1ccccc1C(C#N)/C(=N/NC(=O)c1cc2ccccc2cc1O)C(=O)Nc1cccc(Cl)c1 (stereo not drawn) | 18.4 µM (inactive) | 17.2 µM (inactive) | 6.75 µM (inactive) | 5.37 µM (inactive) | 20.5 µM (inactive) | 21.8 µM (inactive) | 14.8 µM (inactive) | 17.3 µM (inactive) | 
COC(=O)CCC(=O)CC(=O)C(=O)Nc1c(Cl)cc([N+](=O)[O-])cc1Cl | 65.6 µM (inactive) | 23.5 µM (inactive) | > 100 µM (inactive) | > 100 µM (inactive) | > 100 µM (inactive) | > 100 µM (inactive) | > 100 µM (inactive) | > 100 µM (inactive) | > 100 µM (inactive)
Nc1nc2c(ncn2CCCC(c2ccccc2)P(=O)(O)O)c(=O)[nH]1 (stereo not drawn) | > 100 µM (inactive) | > 100 µM (inactive) | > 100 µM (inactive) | 62.4 µM (inactive) | > 100 µM (inactive) | > 100 µM (inactive) |  | > 100 µM (inactive) | 
O=C1C(N2C(=O)c3ccccc3C2=O)CN1C(COCc1ccccc1)c1ccc(OCc2ccccc2)cc1 (stereo not drawn) | > 100 µM (inactive) | > 100 µM (inactive) | > 100 µM (inactive) |  | > 100 µM (inactive) | > 100 µM (inactive) | > 100 µM (inactive) | > 100 µM (inactive) | 
COc1ccc(-c2nc3c(nc2-c2ccc(OC)cc2)N(C)S(=O)(=O)N=C3N)cc1 | 33.3 µM (inactive) | 17.3 µM (inactive) | 41.6 µM (inactive) | 47.2 µM (inactive) | 27.3 µM (inactive) |  |  | 31.5 µM (inactive) | 
COc1c(OC2OC(CO)C(O)C(O)C2O)cc2c(c1OC)-c1ccc(OC)c(=O)cc1[C@@H](NC(C)=O)CC2 (stereo partly drawn) | > 100 µM (inactive) | 44.7 µM (inactive) | > 100 µM (inactive) | > 100 µM (inactive) | 54.1 µM (inactive) | 61 µM (inactive) | 29.3 µM (inactive) | 60.1 µM (inactive) | > 100 µM (inactive)
